From patent US20220056037A1 (SPV THERAPEUTICS INC., priority 2018, published 2022) come the findings set out here.

Read-outs that look alike come from different tables or passages of the source.

Common to all, as to test: Inhibition assay, microfluidic LabChip (Nanosyn)
Assay type in all cases: biochemical

For one test, the target named is T1, CDK4-CYCLIND1 (Homo sapiens, UniProt P11802).
T1 construct: purchased Invitrogen
The protocol: (§1) The reaction was terminated by the addition of EDTA. The plates were analyzed using a Caliper LabChip 3000.
(§2) Additional inhibition assays were performed as described above.

The next test concerns the target T2, CDK6-CYCLIND3 (Homo sapiens, UniProt Q00534).
T2 construct: purchased Carna
The protocol:
as §1, §2

A further test deals with T3, CDK9-CYCLINT1 (Homo sapiens, UniProt P50750).
T3 construct: purchased Carna
The protocol:
as §1, §2

In another test the target is CDK7 CyclinH (Homo sapiens, UniProt P50613). The protocol: as §1, §2
A further test concerns the target T4, CDK2-CYCLINA (Homo sapiens, UniProt P24941).
T4 construct: purchased Millipore
The protocol: as §1, §2

[1] abbreviates: Table 2, ATP 200 μM, read-out: CDK4 IC50.
[2] abbreviates: Table 2, ATP 300 μM, read-out: CDK6 IC50.
Setting [3] is: Table 3a, read-out: CDK4 CyclinD1 IC50.
Where [4] appears, read: Table 3b, read-out: CDK4 CyclinD1 IC50.
Where [5] appears, read: Table 3a, read-out: CDK6 CyclinD3 IC50.
The mark [6] stands for this setting: Table 3b, read-out: CDK6 CyclinD3 IC50.

CDK7 CyclinH, sequence (P50613 whole entry): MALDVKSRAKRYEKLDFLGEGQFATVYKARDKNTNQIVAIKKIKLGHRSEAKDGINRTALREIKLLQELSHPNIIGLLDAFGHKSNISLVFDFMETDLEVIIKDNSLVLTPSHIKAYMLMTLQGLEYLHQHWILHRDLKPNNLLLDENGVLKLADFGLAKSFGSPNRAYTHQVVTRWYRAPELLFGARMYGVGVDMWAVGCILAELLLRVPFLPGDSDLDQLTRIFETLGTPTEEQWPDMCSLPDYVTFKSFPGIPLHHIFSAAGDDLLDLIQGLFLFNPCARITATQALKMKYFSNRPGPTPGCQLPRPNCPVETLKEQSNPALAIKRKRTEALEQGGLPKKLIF
CDK7 CyclinH, sequence (P51946 whole entry partner): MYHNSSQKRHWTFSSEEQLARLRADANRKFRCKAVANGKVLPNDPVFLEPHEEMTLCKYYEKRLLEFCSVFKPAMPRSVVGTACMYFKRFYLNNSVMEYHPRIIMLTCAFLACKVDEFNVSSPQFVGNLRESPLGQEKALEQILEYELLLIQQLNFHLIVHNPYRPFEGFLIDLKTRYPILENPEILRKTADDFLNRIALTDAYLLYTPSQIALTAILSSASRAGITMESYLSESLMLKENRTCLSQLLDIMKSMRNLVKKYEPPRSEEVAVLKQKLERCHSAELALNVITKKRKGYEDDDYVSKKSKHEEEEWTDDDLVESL
CDK7 CyclinH, sequence (P51948 whole entry partner): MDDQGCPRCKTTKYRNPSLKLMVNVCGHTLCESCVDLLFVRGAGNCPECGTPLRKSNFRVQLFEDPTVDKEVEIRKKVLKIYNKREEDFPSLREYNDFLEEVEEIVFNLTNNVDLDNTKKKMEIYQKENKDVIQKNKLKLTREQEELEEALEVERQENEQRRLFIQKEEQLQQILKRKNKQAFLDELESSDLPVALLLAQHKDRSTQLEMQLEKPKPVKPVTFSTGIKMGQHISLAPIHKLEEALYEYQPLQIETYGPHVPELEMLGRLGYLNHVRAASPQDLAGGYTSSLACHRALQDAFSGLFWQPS
T2 sequence (Q00534 whole entry): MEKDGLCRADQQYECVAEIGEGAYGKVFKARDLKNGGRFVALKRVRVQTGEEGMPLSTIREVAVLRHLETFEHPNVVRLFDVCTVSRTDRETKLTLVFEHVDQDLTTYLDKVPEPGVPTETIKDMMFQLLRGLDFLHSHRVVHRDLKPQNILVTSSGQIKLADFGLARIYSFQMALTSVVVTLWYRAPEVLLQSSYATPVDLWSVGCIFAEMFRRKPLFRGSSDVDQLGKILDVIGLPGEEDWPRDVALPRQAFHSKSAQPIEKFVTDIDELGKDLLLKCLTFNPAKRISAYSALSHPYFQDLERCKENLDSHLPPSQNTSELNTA
T2 sequence (P30281 whole entry partner): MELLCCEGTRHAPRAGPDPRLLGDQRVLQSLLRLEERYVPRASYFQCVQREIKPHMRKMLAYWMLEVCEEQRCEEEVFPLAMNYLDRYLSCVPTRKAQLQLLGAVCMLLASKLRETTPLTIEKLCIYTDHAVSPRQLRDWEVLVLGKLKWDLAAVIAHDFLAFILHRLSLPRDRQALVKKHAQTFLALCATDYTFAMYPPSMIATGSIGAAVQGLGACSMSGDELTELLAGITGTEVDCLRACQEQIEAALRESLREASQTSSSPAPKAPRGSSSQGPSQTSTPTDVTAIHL
T3 sequence (P50750 whole entry): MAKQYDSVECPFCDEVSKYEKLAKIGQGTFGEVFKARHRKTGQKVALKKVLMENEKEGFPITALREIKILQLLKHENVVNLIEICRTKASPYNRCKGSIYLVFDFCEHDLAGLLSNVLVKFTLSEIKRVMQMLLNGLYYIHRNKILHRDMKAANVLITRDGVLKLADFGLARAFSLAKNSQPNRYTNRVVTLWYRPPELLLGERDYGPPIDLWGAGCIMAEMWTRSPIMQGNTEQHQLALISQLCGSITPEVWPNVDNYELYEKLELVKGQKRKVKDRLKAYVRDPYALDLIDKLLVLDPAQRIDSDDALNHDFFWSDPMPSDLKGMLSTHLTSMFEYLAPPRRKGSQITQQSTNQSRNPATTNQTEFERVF
T3 sequence (O60563 whole entry partner): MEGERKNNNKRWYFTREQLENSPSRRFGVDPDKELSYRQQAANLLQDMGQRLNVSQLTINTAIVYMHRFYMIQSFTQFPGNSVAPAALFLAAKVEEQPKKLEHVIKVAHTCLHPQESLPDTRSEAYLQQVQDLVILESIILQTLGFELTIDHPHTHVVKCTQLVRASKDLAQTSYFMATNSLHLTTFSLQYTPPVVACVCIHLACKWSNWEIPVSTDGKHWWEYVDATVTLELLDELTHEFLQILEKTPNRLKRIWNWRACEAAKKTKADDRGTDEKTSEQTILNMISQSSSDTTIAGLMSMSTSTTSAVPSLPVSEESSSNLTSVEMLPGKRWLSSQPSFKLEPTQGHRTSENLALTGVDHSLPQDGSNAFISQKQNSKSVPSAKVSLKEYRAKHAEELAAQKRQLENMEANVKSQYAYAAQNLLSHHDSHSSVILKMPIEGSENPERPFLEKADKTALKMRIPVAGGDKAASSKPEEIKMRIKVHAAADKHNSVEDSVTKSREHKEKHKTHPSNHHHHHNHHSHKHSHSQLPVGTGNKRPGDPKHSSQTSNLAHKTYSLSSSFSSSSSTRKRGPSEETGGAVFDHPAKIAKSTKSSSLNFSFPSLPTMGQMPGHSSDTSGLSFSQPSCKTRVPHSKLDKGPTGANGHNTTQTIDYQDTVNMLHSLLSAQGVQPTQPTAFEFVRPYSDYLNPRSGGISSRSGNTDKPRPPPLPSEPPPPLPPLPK
T1 sequence (P11802 whole entry): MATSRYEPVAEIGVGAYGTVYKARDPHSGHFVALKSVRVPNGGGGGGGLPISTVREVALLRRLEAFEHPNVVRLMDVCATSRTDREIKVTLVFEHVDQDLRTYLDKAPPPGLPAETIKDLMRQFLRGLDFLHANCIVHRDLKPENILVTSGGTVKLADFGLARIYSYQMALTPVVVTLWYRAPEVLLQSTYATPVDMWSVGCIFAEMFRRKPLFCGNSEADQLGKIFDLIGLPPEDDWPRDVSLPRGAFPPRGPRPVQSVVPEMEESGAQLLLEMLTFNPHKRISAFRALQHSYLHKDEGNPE
T1 sequence (P24385 whole entry partner): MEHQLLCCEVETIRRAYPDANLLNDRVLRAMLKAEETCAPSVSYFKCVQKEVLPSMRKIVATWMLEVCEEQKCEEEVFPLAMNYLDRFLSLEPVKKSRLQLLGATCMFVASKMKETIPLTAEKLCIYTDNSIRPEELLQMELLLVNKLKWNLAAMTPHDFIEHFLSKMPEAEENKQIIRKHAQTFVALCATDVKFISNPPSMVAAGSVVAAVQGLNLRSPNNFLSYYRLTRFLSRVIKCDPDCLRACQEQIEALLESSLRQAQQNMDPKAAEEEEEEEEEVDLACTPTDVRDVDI

A word on the IC50: it is the concentration needed to halve the response being measured. As to `CN1CCN(c2ccc(Nc3ncc4cc(C(=O)N(C)C)n(C56CC(C5)C6)c4n3)cc2F)CC1` [Compound A30, 7-(bicyclo[1.1.1]pentan-1-yl)-2-((3-fluoro-4-(4-methylpiperazin-1-yl)phenyl)amino)-N,N-dimethyl-7H-pyrrolo[2,3-d]pyrimidine-6-carboxamide], the IC50 came to 10.7 nM at CDK4-CYCLIND1 (setting [1]) and 31.7 nM on CDK6-CYCLIND3 (setting [2]).

On to `Cc1cc(Nc2ncc3cc(C(=O)N(C)C)n(C45CC(C4)C5)c3n2)ccc1N1CCN(C(C)C)CC1` [Compound A31, 7-(bicyclo[1.1.1]pentan-1-yl)-2-((4-(4-isopropylpiperazin-1-yl)-3-methylphenyl)amino)-N,N-dimethyl-7H-pyrrolo[2,3-d]pyrimidine-6-carboxamide], for which the values for the IC50 at CDK4-CYCLIND1 (setting [1]) and at CDK6-CYCLIND3 (setting [2]) were 9 nM and 33.7 nM, respectively.

Take `CN(C)C(=O)c1cc2cnc(Nc3ccc(OCCN4CCCC4)c(F)c3)nc2n1C1CCCC1` [Compound A32, 7-cyclopentyl-2-((3-fluoro-4-(2-(pyrrolidin-1-yl)ethoxy)phenyl)amino)-N,N-dimethyl-7H-pyrrolo[2,3-d]pyrimidine-6-carboxamide]: the IC50 at CDK4-CYCLIND1 (setting [1]) stood at 1.95 nM; at CDK6-CYCLIND3 (setting [2]) it was 10.1 nM.

For the molecule `CN(C)C(=O)c1c(F)c2cnc(Nc3ccc(OCCN4CCCC4)c(F)c3)nc2n1C1CCCC1` [Compound A33, 7-cyclopentyl-5-fluoro-2-((3-fluoro-4-(2-(pyrrolidin-1-yl)ethoxy)phenyl)amino)-N,N-dimethyl-7H-pyrrolo[2,3-d]pyrimidine-6-carboxamide], the IC50 at CDK4-CYCLIND1 (setting [1]) worked out at 10.1 nM; on CDK6-CYCLIND3 (setting [2]), 37.4 nM.

Regarding `Cc1cc(Nc2ncc3c(F)c(C(=O)N(C)C)n(C4CCCC4)c3n2)ccc1N1CCN(C(C)C)CC1` [Compound A34, 7-cyclopentyl-5-fluoro-2-((4-(4-isopropylpiperazin-1-yl)-3-methylphenyl)amino)-N,N-dimethyl-7H-pyrrolo[2,3-d]pyrimidine-6-carboxamide], the results for the IC50 on CDK4-CYCLIND1 (setting [1]) and at CDK6-CYCLIND3 (setting [2]) were 26.2 nM and 103 nM, respectively.

For `COc1cc(Nc2ncc3c(F)c(C(=O)N(C)C)n(C4CCCC4)c3n2)ccc1N1CCN(C(C)C)CC1` [Compound A35, 7-cyclopentyl-5-fluoro-2-((4-(4-isopropylpiperazin-1-yl)-3-methoxyphenyl)amino)-N,N-dimethyl-7H-pyrrolo[2,3-d]pyrimidine-6-carboxamide], the IC50 on CDK4-CYCLIND1 (setting [1]) came out at 43.8 nM; at CDK6-CYCLIND3 (setting [2]) it was 217 nM.

Turning to `CC(C)N1CCN(c2ccc(Nc3ncc4c(F)c(C(=O)N(C)C)n(C5CCCC5)c4n3)cc2)CC1` [Compound A36, 7-cyclopentyl-5-fluoro-2-((4-(4-isopropylpiperazin-1-yl)phenyl)amino)-N,N-dimethyl-7H-pyrrolo[2,3-d]pyrimidine-6-carboxamide], the figures for the 50% inhibitory concentration (IC50) at CDK4-CYCLIND1 (setting [1]) and at CDK6-CYCLIND3 (setting [2]) were 8.17 nM and 32.5 nM, respectively.

As for `CN1CCN(c2ccc(Nc3ncc4cc(C(=O)N(C)C)n(C56CC(C5)C6)c4n3)nc2)CC1` [Compound A38, 7-(bicyclo[1.1.1]pentan-1-yl)-N,N-dimethyl-2-((5-(4-methylpiperazin-1-yl)pyridin-2-yl)amino)-7H-pyrrolo[2,3-d]pyrimidine-6-carboxamide], the IC50 is 15.4 nM on CDK4-CYCLIND1 (setting [1]) and 23.5 nM on CDK6-CYCLIND3 (setting [2]).

Take `CN1CCN(c2ccc(Nc3ncc4cc(C(=O)N(C)C)n(C56CC(C5)C6)c4n3)cc2F)CC1` [Compound A40, 7-(bicyclo[1.1.1]pentan-1-yl)-2-((3-fluoro-4-(4-methylpiperazin-1-yl)phenyl)amino)-N,N-dimethyl-7H-pyrrolo[2,3-d]pyrimidine-6-carboxamide]: the IC50 on CDK4-CYCLIND1 (setting [1]) stood at 5.16 nM; at CDK6-CYCLIND3 (setting [2]), 17.3 nM.

`CCN1CCN(Cc2ccc(Nc3ncc4cc(C(=O)N(C)C)n(C56CC(C5)C6)c4n3)nc2)CC1` [Compound A41, 7-(bicyclo[1.1.1]pentan-1-yl)-2-((5-((4-ethylpiperazin-1-yl)methyl)pyridin-2-yl)amino)-N,N-dimethyl-7H-pyrrolo[2,3-d]pyrimidine-6-carboxamide]: the results for the IC50 at CDK4-CYCLIND1 (setting [1]) and at CDK6-CYCLIND3 (setting [2]) were 21.4 nM and 40.2 nM, respectively.

Take `CN(C)C(=O)c1cc2cnc(Nc3ccc(N4CCOCC4)c(F)c3)nc2n1C12CC(C1)C2` [Compound A42, 7-(bicyclo[1.1.1]pentan-1-yl)-2-((3-fluoro-4-morpholinophenyl)amino)-N,N-dimethyl-7H-pyrrolo[2,3-d]pyrimidine-6-carboxamide]: the IC50 at CDK4-CYCLIND1 (setting [1]) came out at 15 nM; at CDK6-CYCLIND3 (setting [2]), 43.4 nM.

For `CC(C)N1CC=C(c2ccc(Nc3ncc4cc(C(=O)N(C)C)n(C56CC(C5)C6)c4n3)nc2)CC1` [Compound A43, 7-(bicyclo[1.1.1]pentan-1-yl)-2-((1′-isopropyl-1′,2′,3′,6′-tetrahydro-[3,4′-bipyridin]-6-yl)amino)-N,N-dimethyl-7H-pyrrolo[2,3-d]pyrimidine-6-carboxamide], the IC50 on CDK4-CYCLIND1 (setting [1]) was 35.6 nM; on CDK6-CYCLIND3 (setting [2]) it was 32.9 nM.

For `CN(C)C(=O)c1cc2cnc(Nc3ccc(C(=O)N4CC[C@H](N(C)C)C4)cc3)nc2n1C12CC(C1)C2` [Compound A44, (S)-7-(bicyclo[1.1.1]pentan-1-yl)-2-((4-(3-(dimethylamino)pyrrolidine-1-carbonyl)phenyl)amino)-N,N-dimethyl-7H-pyrrolo[2,3-d]pyrimidine-6-carboxamide], the values for the IC50 on CDK4-CYCLIND1 (setting [1]) and on CDK6-CYCLIND3 (setting [2]) were 2.45 nM and 10.1 nM, respectively.

With `CN(C)C(=O)c1cc2cnc(Nc3ccc(N4CCC(N5CCOCC5)CC4)cc3)nc2n1C12CC(C1)C2` [Compound A45, 7-(bicyclo[1.1.1]pentan-1-yl)-N,N-dimethyl-2-((4-(4-morpholinopiperidin-1-yl)phenyl)amino)-7H-pyrrolo[2,3-d]pyrimidine-6-carboxamide], the half-maximal inhibitory concentration (IC50) at CDK4-CYCLIND1 (setting [1]) came to 29.3 nM; on CDK6-CYCLIND3 (setting [2]), 73.3 nM.

As for `CN(C)C(=O)c1cc2cnc(Nc3ccc(N4CC5(CNC5)C4)nc3)nc2n1C12CC(C1)C2` [Compound A46, 2-((6-(2,6-diazaspiro[3.3]heptan-2-yl)pyridin-3-yl)amino)-7-(bicyclo[1.1.1]pentan-1-yl)-N,N-dimethyl-7H-pyrrolo[2,3-d]pyrimidine-6-carboxamide], the IC50 on CDK4-CYCLIND1 (setting [1]) stood at 12.6 nM; on CDK6-CYCLIND3 (setting [2]), 28.2 nM.

As to `CN(C)C(=O)c1cc2cnc(Nc3ccc(N4CC5(CNC5)C4)c(F)c3)nc2n1C12CC(C1)C2` [Compound A47, 7-(bicyclo[1.1.1]pentan-1-yl)-2-((3-fluoro-4-(2,6-diazaspiro[3.3]heptan-2-yl)phenyl)amino)-N,N-dimethyl-7H-pyrrolo[2,3-d]pyrimidine-6-carboxamide], the results for the IC50 on CDK4-CYCLIND1 (setting [1]) and at CDK6-CYCLIND3 (setting [2]) were 5.22 nM and 16.5 nM, respectively.

With `CN(C)C(=O)c1cc2cnc(Nc3ccc(N4CC5(CNC5)C4)cc3)nc2n1C12CC(C1)C2` [Compound A48, 2-((4-(2,6-diazaspiro[3.3]heptan-2-yl)phenyl)amino)-7-(bicyclo[1.1.1]pentan-1-yl)-N,N-dimethyl-7H-pyrrolo[2,3-d]pyrimidine-6-carboxamide], the 50% inhibitory concentration (IC50) came out at 16.4 nM at CDK4-CYCLIND1 (setting [3]); 16.4 nM at CDK4-CYCLIND1 (setting [4]); 44 nM on CDK6-CYCLIND3 (setting [5]); 44 nM on CDK6-CYCLIND3 (setting [6]); 14.9 nM on CDK9-CYCLINT1 (Table 3a); 4.86 µM at CDK7 CyclinH (Table 3a). In addition, the IC50 on CDK7 CyclinH (Table 3b) was 4.86 µM; on CDK2-CYCLINA (Table 3a), 666 nM; against CDK2-CYCLINA (Table 3b) it was 666 nM.

Consider `CN(C)C(=O)c1cc2cnc(NC3CCN(S(C)(=O)=O)CC3)nc2n1C12CC(C1)C2` [Compound A75, 7-(bicyclo[1.1.1]pentan-1-yl)-N,N-dimethyl-2-((1-(methylsulfonyl)piperidin-4-yl)amino)-7H-pyrrolo[2,3-d]pyrimidine-6-carboxamide], for which the IC50 against CDK9-CYCLINT1 (Table 3a) is 11.4 nM; against CDK7 CyclinH (Table 3a), 8.13 µM; against CDK7 CyclinH (Table 3b), 8.13 µM.

In the case of `CN(C)C(=O)c1cc2cnc(Nc3ccc(N4CCNCC4)cc3)nc2n1C12CC(C1)C2` [Compound A83, 7-(bicyclo[1.1.1]pentan-1-yl)-N,N-dimethyl-2-((4-(piperazin-1-yl)phenyl)amino)-7H-pyrrolo[2,3-d]pyrimidine-6-carboxamide], the IC50 worked out at 6.75 nM at CDK4-CYCLIND1 (setting [3]); 6.75 nM at CDK4-CYCLIND1 (setting [4]); 15 nM on CDK6-CYCLIND3 (setting [5]); 15 nM on CDK6-CYCLIND3 (setting [6]); 12.7 nM against CDK9-CYCLINT1 (Table 3a); 3.41 µM on CDK7 CyclinH (Table 3a). The IC50 against CDK7 CyclinH (Table 3b) amounted to 3.41 µM; on CDK2-CYCLINA (Table 3a) it was 289 nM; against CDK2-CYCLINA (Table 3b) it was 289 nM.

As to `CN1CCN(c2ccc(Nc3ncc4cc(C(=O)N(C)C)n(C56CC(C5)C6)c4n3)cc2)CC1` [Compound A84, 7-(bicyclo[1.1.1]pentan-1-yl)-N,N-dimethyl-2-((4-(4-methylpiperazin-1-yl)phenyl)amino)-7H-pyrrolo[2,3-d]pyrimidine-6-carboxamide], the IC50 on CDK4-CYCLIND1 (setting [3]) stood at 2.44 nM; on CDK4-CYCLIND1 (setting [4]) it was 2.44 nM; at CDK6-CYCLIND3 (setting [5]), 6.1 nM; on CDK6-CYCLIND3 (setting [6]) it was 6.1 nM; on CDK9-CYCLINT1 (Table 3a), 5.84 nM; against CDK9-CYCLINT1 (Table 3b), 5.84 nM. Besides, the IC50 against CDK7 CyclinH (Table 3a) turned out to be 1.43 µM; on CDK7 CyclinH (Table 3b) it was 1.43 µM; on CDK2-CYCLINA (Table 3a), 185 nM; at CDK2-CYCLINA (Table 3b), 185 nM.

In the case of `CN(C)C(=O)c1cc2cnc(Nc3ccc(N4CCNCC4)c(F)c3)nc2n1C12CC(C1)C2` [Compound A85, 7-(bicyclo[1.1.1]pentan-1-yl)-2-((3-fluoro-4-(piperazin-1-yl)phenyl)amino)-N,N-dimethyl-7H-pyrrolo[2,3-d]pyrimidine-6-carboxamide], the concentration for half-maximal inhibition (IC50) at CDK7 CyclinH (Table 3a) was 1.14 µM; against CDK7 CyclinH (Table 3b) it was 1.14 µM; against CDK2-CYCLINA (Table 3a), 162 nM; at CDK2-CYCLINA (Table 3b), 162 nM.
